Assay results: publication PMC5668625 (Biochemistry and Biophysics Reports, 2015)

Molecular target: human phosphoglucose isomerase (hPGI) / autocrine motility factor (Homo sapiens, UniProt P06744)
Test: end-point isomerization kinetics
Assay type: biochemical

With `O=C(O)[C@H](O)[C@@H](O)[C@H](O)[C@H](O)COP(=O)(O)O` [6P-GA, 6-phosphogluconate] the Ki was 12 µM.
